Assay [1] concerns the target T1, Pantothenate synthetase (Mycobacterium tuberculosis, UniProt P9WIL5).
T1 sequence (P9WIL5 whole entry): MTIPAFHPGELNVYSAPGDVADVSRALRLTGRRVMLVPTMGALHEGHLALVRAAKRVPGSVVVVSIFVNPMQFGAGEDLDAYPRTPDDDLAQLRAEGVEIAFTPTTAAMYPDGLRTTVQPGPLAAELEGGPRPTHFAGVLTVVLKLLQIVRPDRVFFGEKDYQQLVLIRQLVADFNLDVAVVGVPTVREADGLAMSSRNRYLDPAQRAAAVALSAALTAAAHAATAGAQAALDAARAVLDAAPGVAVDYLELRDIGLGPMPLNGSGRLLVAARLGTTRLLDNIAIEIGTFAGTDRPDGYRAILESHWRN
The experiment in a line: Inhibition of Mycobacterium tuberculosis pantothenate synthetase by high throughput screening method.

Assay [2] has as its target T2, Pantothenate synthetase (Mycobacterium tuberculosis) (UniProt P9WIL5).
T2 sequence (whole entry): T1 sequence (P9WIL5 whole entry)
The experiment in a line: Inhibition of Mycobacterium tuberculosis pantothenate synthetase at 50 uM by high throughput screening method relative to control.

Assay [3] has as its target T1, Pantothenate synthetase. Briefly: Competitive inhibition of Mycobacterium tuberculosis pantothenate synthetase using ATP by Dixon plot analysis.
Assay [4] concerns the target T1, Pantothenate synthetase. The experiment in a line: Competitive inhibition of Mycobacterium tuberculosis pantothenate synthetase using beta-alanine by Dixon plot analysis.
Assay [5] relates to Mycobacterium tuberculosis. The experiment in a line: Antimycobacterial activity against Mycobacterium tuberculosis H37Rv. Format: functional.

The values that follow come from ChEMBL document CHEMBL1795340, “A discovery of novel Mycobacterium tuberculosis pantothenate synthetase inhibitors based on the molecular mechanism of actinomycin D inhibition” (Bioorg Med Chem Lett, 2011).

SMILES strings stand for the structures. In brackets after ≈: the same amount, converted by molar mass. Counter-ions that a name gives are not always drawn. Numbered stars: 1 amine (or outer) side, 2 acyl side, 3 side chain; on linkers, the order of the positions; unused ones are H or OH. Bridge positions count the residues as written; N and C are the ends. Square brackets hold non-standard residues; d marks the D form. Peptide text beside a SMILES is read from it. I, II: the chains in the order shown. Actinocin(9to1) = Cc1c2oc3c(C)ccc(C(=O)[*:1])c3nc-2c(C(=O)[*:2])c(N)c1=O; NMeV = CN[C@H](C(=O)O)C(C)C; Sar = CNCC(=O)O

As a reminder, the IC50 is the point on the concentration scale where inhibition reaches its midpoint. By inhibition is commonly meant the share of the control response that was lost under treatment. By Ki is commonly meant a measure of affinity in units of concentration, obtained from inhibition or displacement. The term MIC denotes the least concentration at which growth counts as inhibited. A low value points to greater potency.

In the case of `CCN(CC)CCOC(=O)C(Cc1cccc2ccccc12)CC1CCCO1` (stereo not drawn) [NAFRONYL OXALATE], at Pantothenate synthetase [1], the IC50 was 398 µM.
Regarding `C=C/C=C/C=C/c1cccc(NNC(=O)CCC(=O)O)c1`, in assay [2], the inhibition is 27.1%.
`COC(=O)c1cc2c(OCc3ccccc3)cc(N)cc2[nH]1`: the values for the Ki at Pantothenate synthetase [3] and on Pantothenate synthetase [4] were 1.4 µM and 19.7 µM, respectively. Moreover, the MIC in assay [5] turned out to be 54 µM (≈ 16 µg/mL). In assay [2], this compound yielded an inhibition of 69.4%. This compound also gave a half-maximal inhibitory concentration (IC50) on Pantothenate synthetase [1] of 22.4 µM.
Regarding `Cc1c2oc3c(C)ccc(C(=O)N[C@@H]4C(=O)N[C@H](C(C)C)C(=O)N5CCC[C@H]5C(=O)N(C)CC(=O)N(C)[C@@H](C(C)C)C(=O)O[C@@H]4C)c3nc-2c(C(=O)N[C@@H]2C(=O)N[C@H](C(C)C)C(=O)N3CCC[C@H]3C(=O)N(C)CC(=O)N(C)[C@@H](C(C)C)C(=O)O[C@@H]2C)c(N)c1=O` [DACTINOMYCIN] (I: T[dV]P[Sar][NMeV] / II: T[dV]P[Sar][NMeV]; ester I:1-I:C, II:1-II:C; linker I:N-II:N via Actinocin(9to1)), at Pantothenate synthetase [1], half-maximal inhibition (IC50) required 251 µM.
